Results: PMC11178908, “Diabetes drugs activate neuroprotective pathways in models of neonatal hypoxic-ischemic encephalopathy” (EMBO Molecular Medicine, 2024)
Several values for one entry are separate records, joined by “and”; a condition that tells them apart may be missing. Equal entries are not always repeated. Entries after “also recorded” stand apart in the source; their conditions may differ.

What was measured:
GLP1-R = assay: cAMP content in the brain of naïve P10 mice (blood-brain barrier crossing); assay type: in vivo
Description: Brains of P10 naive mice or treated at the different time points were collected (n = 4 per group). All samples were processed using AMP direct immunoassay kit as per manufacturer’s instructions (Abcam).

[1] = Blood glucose / hypoglycaemia; assay type: in vivo, P10 CD1 mice; conditions: for blood glucose: HI P10 mice
Protocol: (§1) Thereafter, a dosing experiment was conducted to evaluate the optimal dose for semaglutide in the same neonatal HIE model (Fig. EV2F) and brain protection was measured using a macroscopic scoring system to assess the size of the infarct.
Blood glucose levels (mmol/l) were measured using a blood glucose monitor (CodeFree, SD Biosensor) in naive controls and mice following one semaglutide dose administration (0.25 µg/g) with or without glucose supplementation, intraperitoneally or subcutaneously to determine the best route of administration. Blood samples were collected via cardiac puncture at 0.5 h, 2 h, 24 h, 7 days, and 14 days for glucose test. Brains of P10 naive mice or treated at the different time points were collected (n = 4 per group). All samples were processed using […] as per manufacturer’s instructions (Abcam).

[2] = system: P10 CD1 mice with surgically induced HI; assay: Mortality after semaglutide in neonatal mice with HI; assay type: in vivo; conditions: semaglutide 0.5 µg/g (500 µg/kg), no glucose
Protocol: as §1
The body temperature was maintained using a heating mat. […] The pups were then immediately returned to the dam. […] 1% mortality was observed following this procedure. […] The study design is illustrated in Fig. EV1.

pGSK3β-S9 = pGSK3β-S9 protein level in brain (western blot) after HI
Protocol: Tissues were homogenized (Ultra-Turrax TP, IKA Labortechnik, Wasserburg, Germany) on ice in 300 ml of RIPA lysis buffer (Thermo) per 100 mg of tissue with 1X protease inhibitor cocktail (Thermo) and incubated for 30 min. Lysates were centrifuged at 14,000 × g, 4 °C for 20 min and overall protein concentrations of the supernatant were determined by Pierce BCA Protein Assay (Life Technologies). […] Proteins were transferred to PDVF membrane at 400 mA for 1 h and membrane was blocked for 1 h at 4 °C with 5% BSA in TBS with 3% Tween-20. Membranes were subsequently incubated overnight at 4 °C with primary antibodies (Appendix Table S2) with 3% BSA in TBS with 3% Tween-20. […] Blots were developed with the ECL system (SuperSignal West Pico, Life Technologies) and imaged using a Genegnome imager (Syngene, Cambridge, UK).
All experiments involved litters of postnatal day 10 CD1 mice (P10) bred in-house. […] This was achieved using heating mats, heated incubators and prompt returning of pups to the dam. […] The left common carotid artery was permanently occluded with 8/0 polypropylene suture and the wound closed with tissue glue. The body temperature was maintained using a heating mat. The mice recovered in an incubator at 37 °C and were returned to the dam for 1 h. […] The pups were then immediately returned to the dam. […] All treatments were administered immediately after HI via intraperitoneal administration. […] Treated animal were culled at either 48 h post HI for ST studies or 60 days post HI for LT studies.

human GLP1-R = assay: GLP1-R activation, luciferase reporter in GLP1-R/pCRE-luciferase/CHO-K1 cells; assay type: cell-based; conditions: exendin-9 (500 nM) with 1 μM semaglutide or exendin-4
Protocol: For biological evaluation of GLP-1/Fc for human GLP1-R activation, GLP1-R/pCRE-Luciferase-co-expressed CHO cell lines were established using the lipofectamine method. […] Using a luciferase assay system (Promega – E1500), activity of the GLP1 receptor can be assessed following treatment with GLP1-R agonists for 24 h in 96-well plates.

HIF-1-α = HIF-1-α expression (qPCR) in primary neurons exposed to OGD; assay type: cell-based, CD1 mice; conditions: p < 0.0001 exendin-4, p < 0.0001 semaglutide
Protocol: (§2) Cells were plated at a density of 2 × 10^6 cells/6 cm plate and propagated. At DIV 10–12, neurons were subjected to oxygen–glucose deprivation (OGD) in neurobasal-A medium lacking glucose and incubated in a hypoxia chamber (Billups-Rothenburg Inc., Del Mar, CA, USA) filled with an anoxic atmosphere of 5% CO2 balanced in nitrogen at 37 °C for 2 h. […] Culture medium was assayed after 24 h.
(§3) RNA from neuron cultures or brains was extracted and isolated using RNeasy Mini kit (Qiagen) and first-strand cDNA was generated using High-Capacity cDNA Reverse Transcription kit (Applied Biosystems). Quantitative RT-PCR was carried out using a StepOnePlus (Applied Biosystems) with the SsoAdvanced™ Universal SYBR Green PCR Core Reagents Supermix (Bio-Rad). Primers sequences were designed to detect GLP1-R, CREB, GSK3β, il-10, IL-4, IL-1β, ATF-3, Bcl-2, Bcl-xL (Appendix Table S1). Data from StepOne™ software v2.3 were calibrated to Gapdh, and the relative quantitation of gene expression was performed using the comparative CT method.

ATF-3 = ATF-3 expression (qPCR, immunofluorescence) in primary neurons exposed to OGD; assay type: cell-based, CD1 mice
Protocol: as §2, §3
Neuronal cultures (n = 6 per group) were stained by simultaneous overnight incubation with ATF-3 and anti-NeuN antibodies (Appendix Table S2). Representative images were captured using a Zeiss LSM710 confocal microscope and Zen software (Carl Zeiss AG). […] All images were processed using Imaris v.9.1 (Bitplane AG).

CREB = CREB expression (qPCR) in primary neurons exposed to OGD; assay type: cell-based, CD1 mice; conditions: p = 0.0016 exendin-4, p = 0.0002 semaglutide
Protocol: as §2, §3

caspase 3 = assay: Caspase 3 activity in primary neurons exposed to OGD; assay type: cell-based, CD1 mice
Protocol: as §2
Culture medium was assayed after treatment at 24 h post-OGD. All samples were processed using Multiplex caspases 3, 8 and 9 activity assay kit as per manufacturer’s instructions (Abcam – Ab219915).

Row | effect of antagonist on anti-apoptotic effects of exendin-4 and semaglutide (caspase 3; Bcl-xL, Bcl-2, caspases 3, 8, 9) | Compound | blood-brain barrier crossing (GLP1-R; IP, naïve neonatal mice) | entry into the brain and GLP1-R activation, IP vs SC (GLP1-R; p < 0.0001 at 30 mins, p = 0.0024 at 2 h) | blood glucose ([1]; 0.5 µg/g IP, 30 min, p = 0.0002) | blood glucose ([1]; 0.5 µg/g IP, 2 h, p = 0.0003) | blood glucose ([1]; 0.5 µg/g IP, 24 h, p = 0.0003) | blood glucose ([1]; 0.5 µg/g SC, 2 h, p = 0.0180) | blood glucose ([1]; 0.5 µg/g SC, 24 h, p = 0.0289) | hypoglycaemia with oral glucose supplementation ([1]; 2 mg/g oral glucose, semaglutide 0.5 µg/g) | fall in blood glucose ([1]; intraperitoneal, high dose in HI neonatal mice) | mortality / recovery after HI surgery [2] | pGSK3β-S9 protein level (pGSK3β-S9; after HI, western blot, relative to β-actin, single animals, n = 4) | pGSK3β-S9 protein level vs HI saline (pGSK3β-S9; p = 0.0001 both) | effect of antagonist on agonist-induced luciferase expression (human GLP1-R) | HIF-1-α expression vs OGD (HIF-1-α) | ATF-3 average expression/GAPDH (ATF-3; OGD neurons, treatment 2 h after OGD, qPCR, single samples, n = 3, listed as Ex-9) | ATF-3 expression vs OGD (ATF-3; qPCR and immunofluorescence, p = 0.0378 exendin-4, p = 0.0226 semaglutide) | CREB expression vs OGD (CREB) | Caspase 3 activity (caspase 3; 24 h post-OGD, single replicates, n = 5, listed as Ex-9)
1 |  | CC[C@H](C)[C@H](NC(=O)[C@H](Cc1ccccc1)NC(=O)[C@H](CCC(=O)O)NC(=O)[C@H](CCCCNC(=O)COCCOCCNC(=O)COCCOCCNC(=O)CC[C@H](NC(=O)CCCCCCCCCCCCCCCCC(=O)O)C(=O)O)NC(=O)[C@H](C)NC(=O)[C@H](C)NC(=O)[C@H](CCC(N)=O)NC(=O)CNC(=O)[C@H](CCC(=O)O)NC(=O)[C@H](CC(C)C)NC(=O)[C@H](Cc1ccc(O)cc1)NC(=O)[C@H](CO)NC(=O)[C@H](CO)NC(=O)[C@@H](NC(=O)[C@H](CC(=O)O)NC(=O)[C@H](CO)NC(=O)[C@@H](NC(=O)[C@H](Cc1ccccc1)NC(=O)[C@@H](NC(=O)CNC(=O)[C@H](CCC(=O)O)NC(=O)C(C)(C)NC(=O)[C@@H](N)Cc1cnc[nH]1)[C@@H](C)O)[C@@H](C)O)C(C)C)C(=O)N[C@@H](C)C(=O)N[C@@H](Cc1c[nH]c2ccccc12)C(=O)N[C@@H](CC(C)C)C(=O)N[C@H](C(=O)N[C@@H](CCCNC(=N)N)C(=O)NCC(=O)N[C@@H](CCCNC(=N)N)C(=O)NCC(=O)O)C(C)C [semaglutide] | cross the blood-brain barrier | more rapid when the agonist was given IP compared with subcutaneously | Statistically significant hypoglycaemia | Statistically significant hypoglycaemia | Statistically significant hypoglycaemia | Statistically significant hypoglycaemia | Statistically significant hypoglycaemia | completely compensated for by oral supplementation with 2 mg/g glucose | drop significantly within 30 min | increased mortality; also recorded: some mice did not recover from HI surgery | 0.3664 and 0.5017 and 0.5395 and 0.3157 | modulated |  |  |  |  |  | 
2 | inhibited the anti-apoptotic effects | exendin 9-39 [exendin-9] |  |  |  |  |  |  |  |  |  |  |  |  | inhibited | inhibited this improvement | 21.697 and 22.687 and 26.651 | inhibited this effect | blocked this effect | 1.4812 and 1.737 and 1.2406 and 1.699 and 1.511
